pKd: −log10 of the molar value.
Experiments:
Ty-82 = test: Cytotoxicity against human Ty-82 cells assessed as growth inhibition incubated for 72 hrs by WST-1 assay; details: TY82, 72 h
[1] = target: T1, Bromodomain-containing protein 4 (Homo sapiens, UniProt O60885); test: Binding affinity to human BRD4 BD2 expressed in Escherichia coli BL21 (DE3) assessed as dissociation constant by bromodomain analysis
[2] = target: T1, Bromodomain-containing protein 4; test: Binding affinity to human BRD4 BD1 expressed in Escherichia coli BL21 (DE3) assessed as dissociation constant by bromodomain analysis
MV4-11 = test: Cytotoxicity against human MV4-11 cells assessed as growth inhibition incubated for 72 hrs by WST-1 assay; details: MV4-11, 72 h
[3] = target: T1, Bromodomain-containing protein 4; test: Binding affinity to human BRD4 BD1 expressed in Escherichia coli BL21 (DE3) assessed as dissociation constant by ITC analysis
[4] = target: T1, Bromodomain-containing protein 4; test: Binding affinity to human BRD4 BD2 expressed in Escherichia coli BL21 (DE3) assessed as dissociation constant by ITC analysis
Pfeiffer = test: Antiproliferative activity against human Pfeiffer cells assessed as growth inhibition incubated for 72 hrs by WST-1 assay
MOLT-4 = test: Antiproliferative activity against human MOLT-4 cells assessed as growth inhibition incubated for 72 hrs by WST-1 assay; details: MOLT-4, 72 h
U2932 = test: Antiproliferative activity against human U2932 cells assessed as growth inhibition incubated for 72 hrs by WST-1 assay; details: U2932, 72 h
KU-19-19 = test: Antiproliferative activity against human KU-19-19 cells assessed as growth inhibition incubated for 72 hrs by WST-1 assay; details: KU-19-19, 72 h
NCI-H1666 = test: Antiproliferative activity against human NCI-H1666 cells assessed as growth inhibition incubated for 72 hrs by WST-1 assay; details: NCI-H1666, 72 h
[5] = Antiproliferative activity against human SNU-2535 cells assessed as growth inhibition incubated for 72 hrs by WST-1 assay; details: SNU-2535, 72 h
K562 = test: Antiproliferative activity against human K562 cells assessed as growth inhibition incubated for 72 hrs by WST-1 assay; details: K562, 72 h
THP-1 = test: Antiproliferative activity against human THP-1 cells assessed as growth inhibition incubated for 72 hrs by WST-1 assay; details: THP-1, 72 h
LS-1034 = test: Antiproliferative activity against human LS1034 cells assessed as growth inhibition incubated for 72 hrs by WST-1 assay; details: LS-1034, 72 h
NCI-H1975 = test: Antiproliferative activity against human NCI-H1975 cells assessed as growth inhibition incubated for 72 hrs by WST-1 assay; details: NCI-H1975, 72 h
BJAB = test: Antiproliferative activity against human BJAB cells assessed as growth inhibition incubated for 72 hrs by WST-1 assay
SUD4 = test: Antiproliferative activity against human SU-DHL-4 cells assessed as growth inhibition incubated for 72 hrs by WST-1 assay; details: SU-DHL-4, 72 h
T-24 = test: Antiproliferative activity against human T24 cells assessed as growth inhibition incubated for 72 hrs by WST-1 assay; details: T-24, 72 h
Daudi = test: Antiproliferative activity against human Daudi cells assessed as growth inhibition incubated for 72 hrs by WST-1 assay
Raji = test: Antiproliferative activity against human Raji cells assessed as growth inhibition incubated for 72 hrs by WST-1 assay
in vivo [6] = details: rat, po, 5 mg/kg
Description: AUC (0 to infinity) in rat at 5 mg/kg, po

[7] = Half life in rat at 5 mg/kg, po; details: in vivo
in vivo [8] = details: rat, po, 5 mg/kg; remark: listed apart in the source
Description: AUC (0 to t) in rat at 5 mg/kg, po

in vivo [9] = details: rat, po, 5 mg/kg; remark: listed apart in the source
Description: Tmax in rat at 5 mg/kg, po

in vivo [10] = details: rat, po, 5 mg/kg; remark: listed apart in the source
Description: Cmax in rat at 5 mg/kg, po

Row | Structure (SMILES) | GI50 (Ty-82) [nM] | pKd [1] | pKd [2] | GI50 (MV4-11) [nM] | other results
1 | Cc1nnc2c(NCCCCNC(=O)OC(C)(C)C)nc3cc(C(=O)O)ccc3n12 | 650 | 6.66 | 7.44 | – | –
2 | COc1ccc2c(c1)nc(OCCCCNC(=O)CC(C)C)c1nnc(C)n12 | > 10000 | < 5.30 | < 5.30 | > 10000 | –
3 | COc1ccc2c(c1)nc(NCCCCNC(=O)CC(C)C)c1nnc(C)n12 | – | – | – | – | pKd [3]: 8.17; pKd [4]: 6.53
4 | Cc1nnc2c(NCCCCNC(=O)c3ccccc3)nc3ccccc3n12 | 950 | 6.74 | 7.54 | 790 | –
5 | Cc1sc2c(c1C)C(c1ccc(Cl)cc1)=N[C@@H](CC(=O)Nc1ccc(O)cc1)c1nnc(C)n1-2 [BIRABRESIB] | 67 | – | – | 30 | GI50 (Pfeiffer): 210 nM; GI50 (MOLT-4): > 10000 nM; GI50 (U2932): > 10000 nM; GI50 (KU-19-19): > 10000 nM; GI50 (NCI-H1666): > 10000 nM; GI50 [5]: > 10000 nM; GI50 (K562): > 10000 nM; GI50 (THP-1): 40 nM; GI50 (LS-1034): > 10000 nM; GI50 (NCI-H1975): > 10000 nM; GI50 (BJAB): 130 nM; GI50 (SUD4): 2800 nM; GI50 (T-24): 7900 nM; GI50 (Daudi): 4000 nM; GI50 (Raji): > 10000 nM
6 | Cc1nnc2c(NCCCCNC(=O)OC(C)(C)C)nc3ccccc3n12 | 1000 | 6.72 | 7.40 | 980 | AUC(0-inf) (in vivo [6]): 851 ng·h/mL; half-life [7]: 3.52 h; AUC(0-t) (in vivo [8]): 574 ng·h/mL; Tmax (in vivo [9]): 0.667 h; Cmax (in vivo [10]): 180 ng/mL
7 | Cc1nnc2c(NCCCCCCNC(=O)OC(C)(C)C)nc3ccccc3n12 | > 10000 | < 5.30 | < 5.30 | – | –
8 | Cc1nnc2c(NCCCCNC(=O)c3ccccc3Cl)nc3ccccc3n12 | 9600 | 6.96 | 7.49 | – | –
